This is an account of results in publication PMC9820316, “Novel Arylpiperazine Derivatives of Salicylamide with α1-Adrenolytic Properties Showed Antiarrhythmic and Hypotensive Properties in Rats” (International Journal of Molecular Sciences, 2022).

Series [1] deals with α1-adrenergic receptors. The experiment in a line: α1-adrenoceptor radioligand binding assay ([3H]-prazosin, rat cortex). As to conditions: rat cortex tissue, mean ± SEM. The method, then: (§1) The α1- and α2-adrenoceptor radioligand binding assays were performed on the rat cerebral cortex using previously described methods. […] The brains were homogenized using the ULTRA-TURRAX homogenizer in 10 mL of an ice-cold 50 mM Tris-HCl buffer (pH 7.6). The homogenates were centrifuged at 20,000× g for 20 min (0–4 °C). Subsequently, the cell pellet was resuspended in the Tris–HCl buffer and centrifuged again. Radioligand binding assays were carried out in plates (MultiScreen/Millipore). The final incubation mixture, with a volume of 300 μL, consisted of 240 μL of the tissue suspension, 30 μL of the radioligand solution, and 30 μL of the buffer containing 7–8 concentrations of the studied compounds. In order to measure the unspecific binding, 10 μM phentolamine (for [^3H]-prazosin) or 10 μM clonidine (for [^3H]-clonidine) were utilized. The incubation was completed by rapid filtration through Whatman GF/C filters using a vacuum manifold (Millipore). The filters were then washed twice with the assay buffer and placed in scintillation vials with a liquid scintillation cocktail. Radioactivity was measured in a WALLAC 1409 DSA liquid scintillation counter (Perkin Elmer, USA). All the assays were performed in duplicates, and the inhibitory constants (Ki) were calculated.

In series [2] the test system is adrenaline-induced arrhythmia model in rats. The experiment in a line: Prophylactic antiarrhythmic activity in adrenaline-induced arrhythmia. It is filed as in vivo, rat. The conditions noted are these: for Blocks / Bradycardia / Extrasystoles / Mortality: number of animals with event. Here is the method:
(§2) The animals were anesthetized with thiopental (75 mg/kg ip). Depending on the model, either adrenaline, aconitine, or calcium chloride was used as an arrhythmogen. Adrenaline and aconitine were administered iv at a dose of 20 µg/kg, whereas calcium chloride was administered at a dose of 140 mg/kg to induce heart rhythm disturbances. The tested compounds were injected iv 15 min before the arrhythmogen. Aspel ASCARD apparatus (standard II lead, with the tape speed 50 mm/s and voltage calibration 1 mV = 1 cm) was used for ECG measurements. […] The ED50 was calculated using the method of Litchfield and Wilcoxon.

Series [3] has as its system calcium chloride-induced arrhythmia model in rats. In words: Prophylactic antiarrhythmic activity in calcium chloride-induced arrhythmia. In kind it is in vivo, rat. As to conditions: 5 mg/kg iv 15 min before calcium chloride 140 mg/kg; number of animals with event. Here is the method: as §2
Series [4] deals with aconitine-induced arrhythmia model in rats. The experiment in a line: Prophylactic antiarrhythmic activity in aconitine-induced arrhythmia. It is filed as in vivo, rat. As to conditions: 5 mg/kg iv 15 min before aconitine 20 μg/kg; number of animals with event. Here is the method: as §2
For series [5], the system named is normal ECG in rats. In words: Effect on a normal electrocardiogram in rats. It is filed as in vivo, rat. As to conditions: 5 mg/kg iv; for HR—heart rate / PQ interval / QRS complex / QTc (Bazzett's formula): mean ± SD; for PQ interval / QRS complex / QTc (Bazzett's formula): in ms (unit assumed). Here is the method:
The procedure was performed to exclude the negative effects of the tested compounds on the normal ECG, according to the method described earlier. […] Firstly, animals were anesthetized with thiopental (75 mg/kg ip). […] The influence on PQ, QTc interval, QRS complex, and heart rate was evaluated. The Bazzett’s formula: QTc = QT/√RR was used to calculate QTc. All the studied compounds were administered at a dose of 5 mg/kg.

The subject of series [6] is pressor response to methoxamine in rats. In words: Influence on blood vasopressor response to methoxamine in rats. In kind it is in vivo, rat. The conditions noted are these: 5 mg/kg iv, methoxamine 150 μg/kg before and 5 min after compound. The method, then: The experiment was performed to establish the effect of the studied derivatives on the pressor response to methoxamine (150 µg/kg, iv), according to the methods described previously. Normotensive Wistar rats were anesthetized with thiopental (75 mg/kg ip). The right carotid artery was cannulated with a polyethylene tube filled with heparin solution using a Datamax apparatus (Columbus Instruments, Columbus, OH, USA). After a 15-min stabilization period, the pressor response to methoxamine before (control) and 5 min after the administration of the tested compounds was measured (Figure 4B). The tested compounds were administered at the lowest hypotensive dose.

For series [7], the system named is adrenaline-induced arrhythmia model in rats. The experiment in a line: Therapeutic antiarrhythmic activity in adrenaline-induced arrhythmia. As to conditions: 1 mg/kg iv immediately after adrenaline 20 µg/kg; number of animals with event.
Description: The experiments were carried out according to the method described by Szekeres and Papp [71]. The heart rhythm disturbances, such as extrasystoles, conduction blocks, and bradycardia, were induced by iv injection of adrenaline (20 µg/kg) to anesthetized rats (thiopental, 75 mg/kg, ip). […] The Aspel ASCARD apparatus (standard II lead, with a tape of speed 50 mm/s and voltage calibration of 1 mV = 1 cm) was used for the ECG measurements. The ECG was recorded during the first 2 min and in the 5th, 10th, and 15th min after the adrenaline injection (Figure 3B). The lack or decreased amount of extrasystoles, atrioventricular blocks, and bradycardia in the ECG recordings compared to the control group was the criterion of antiarrhythmic activity [72].
Automated ECG waveform analysis was evaluated as described earlier [55], using Eleven Maze software version 0.1 from Eleven Products Sp. z o.o. […] The software, under expert supervision, recognized and classified the heart rhythm irregularities. It also calculated PQ, QRS, QTc, and rate parameters.
Series [8] deals with α2-adrenergic receptors. The experiment in a line: α2-adrenoceptor radioligand binding assay ([3H]-clonidine, rat cortex). As to conditions: rat cortex tissue, mean ± SEM, n.a. = did not bind at 10^−5 M. The method, then: as §1
Where [9] appears, read: 0.02 mg/kg iv 15 min before adrenaline 20 μg/kg.
The mark [10] stands for this setting: 0.05 mg/kg iv 15 min before adrenaline 20 μg/kg.
Setting [11] is: 0.1 mg/kg iv 15 min before adrenaline 20 μg/kg.
[12] abbreviates: 0 min (prior to administration).

With `Cc1ccc(N(CC2=NCCN2)c2cccc(O)c2)cc1` [Phentolamine, phentolamine, reference compound], the “Adrenergic Receptors—pKi α1” value in series [1] is 8.05 ± 0.01.

Take `COc1ccccc1N1CCN(CCCCOc2ccccc2C(N)=O)CC1.Cl` [JJGW07, 2-{4-[4-(2-metoxyphenyl)piperazin-1-ylo]butoxy}benzamide hydrochloride]: in series [1], the “Adrenergic Receptors—pKi α1” value is 7.85 ± 0.01. In addition, the Blocks is given as 6/6 in series [2] (setting [9]); 4/6 in series [2] (setting [10]); 3/6 in series [2] (setting [11]); 6/6 in series [3]; 6/6 in series [4]; 2/5 in series [7]. The Bradycardia in series [2] (setting [9]) is reported as 6/6; in series [2] (setting [10]), 4/6; in series [2] (setting [11]), 3/6; in series [3] it was 6/6; in series [4], 6/6; in series [7], 1/5. For the same compound, the Extrasystoles in series [2] (setting [9]) is reported as 5/6; in series [2] (setting [10]) it was 5/6; in series [2] (setting [11]), 4/6; in series [3], 6/6; in series [4] it was 6/6. Further, the Mortality in series [2] (setting [9]) is reported as 3/6; in series [2] (setting [10]), 0/6; in series [2] (setting [11]) it was 0/6; in series [3], 6/6; in series [4], 6/6; in series [7], 0/5. The “ED50 value lower than that of carvedilol” value in series [2] (adrenaline-induced arrhythmia, prophylactic, carvedilol ref 62) amounted to 9 fold. For the same compound, in series [2] (prophylactic, iv 15 min before adrenaline 20 μg/kg, confidence limits in brackets (Litchfield and Wilcoxon)), the ED50 is 0.04 (0.01–0.15) mg/kg. Further, the Fibrillations in series [3] and in series [4] was 6/6 throughout. In addition, the “effect on the heart rate during the ECG recording” value in series [5] was “did not affect the heart rate”. Also, the “HR—heart rate” value in series [5] (setting [12]) was found to be 328.7 ± 9.3; in series [5] (5 min), 341.2 ± 11.5; in series [5] (10 min), 333.2 ± 20.9; in series [5] (15 min) it was 336.3 ± 20.9. Moreover, the PQ interval is reported as 40.7 ± 2.1 in series [5] (setting [12]), 40.0 ± 2.2 in series [5] (5 min), 40.7 ± 3.7 in series [5] (10 min) and 40.7 ± 1.6 in series [5] (15 min). Also, the QRS complex turned out to be 47.0 ± 6.3 in series [5] (setting [12]), 49.7 ± 7.9 in series [5] (5 min), 48.7 ± 7.2 in series [5] (10 min) and 48.7 ± 9.2 in series [5] (15 min). In addition, the “QTc (Bazzett's formula)” value in series [5] (setting [12]) is listed as 196.5 ± 8.0; in series [5] (5 min), 190.8 ± 4.2; in series [5] (10 min) it was 196.3 ± 9.5; in series [5] (15 min), 192.4 ± 7.5. Also, the “attenuation of the methoxamine pressor response” value in series [6] is on record as 100%.

Take `Clc1cccc(Cl)c1N=C1NCCN1` [Clonidine, clonidine, reference compound]: in series [8], the “Adrenergic Receptors—pKi α2” value was 8.30 ± 0.01.
